Data on one compound can be found in article PMC8301783, “Pitfalls of NMDA Receptor Modulation by Neuroactive Steroids. The Effect of Positive and Negative Modulation of NMDA Receptors in an Animal Model of Schizophrenia” (Biomolecules, 2021).

The test has as its target T1, GABAA receptor (GABAAR).
T1 construct: native receptors in rat cerebral cortex membrane homogenates
As to the kind of experiment: […]TBPS radioligand displacement, rat cortex membranes. Format: binding. In general terms: In a radioligand displacement assay an active substance lowers the binding of a labelled ligand.

For orientation: IC50 means the concentration that gives 50% inhibition. Low values mean inhibition by little substance, high ones a need for much substance. For the compound `CC(=O)[C@H]1CC[C@H]2[C@@H]3CC[C@@H]4C[C@H](OC(=O)[C@@H](N)CCC(=O)O)CC[C@]4(C)[C@H]3CC[C@]12C` [PA-Glu, pregnanolone glutamate], the IC50 was found to be 7.5 µM.
